# Data reported in patent publication US20090068290A1, “BIFEPRUNOX DOSES FOR TREATING SCHIZOPHRENIA” (priority 2006, published 2009).
# Key:
# Format in all cases: in vivo, human
# [1] = system: adult subjects with schizophrenia; assay: BPRS total score, Clinical Study One; conditions: ITT population
# Method: There were five treatment groups in this study. […] Study medication was administered once daily. After Baseline measurements were performed, the titration phase was begun. Bifeprunox treated subjects were titrated up to 5 mg, 10 mg or 20 mg according to a standardized titration schedule (Day 1: 0.125 mg, Day 2: 0.25 mg, Day 3: 0.5 mg, Day 4: 1.0 mg, Day 5: 2.0 mg, Day 6: 5.0 mg, Day 7: 10.0 mg, Day 8: 20 mg). When the assigned dose was reached, subjects were maintained at that dose for the remainder of the six-week treatment period.
# The change in the Positive and Negative Symptom Scale (PANSS) total score, from baseline to endpoint, was the primary outcome measure. Secondary efficacy measures included: PANSS positive, PANSS negative, PANSS general psychopathology (GPP) score, PANSS-derived Brief Psychiatric Rating Scale (BPRS) score, Clinical Global Impressions-Severity of Illness (CGI-S), CGI-Improvement (CGI-I) scores, and responder rates. Safety and tolerability evaluations included extrapyramidal symptoms (EPS), weight gain, lipid profile, and serum prolactin.
# [2] = system: adult subjects with schizophrenia; assay: BPRS total score, Clinical Study Two; conditions: for Change from Baseline in BPRS Total Score, Mean (SD) / Change from Baseline in BPRS Total Score, Median / Change from Baseline in BPRS Total Score, Trt Effect (bifeprunox—placebo) / mean change (SD) from Baseline to Endpoint in BPRS total score: LOCF; for Change from Baseline in BPRS Total Score, Mean (SD) / Change from Baseline in BPRS Total Score, Median / Change from Baseline in BPRS Total Score, Trt Effect (bifeprunox—placebo): ITT population; for BPRS total score, treatment effect (bifeprunox—placebo): Endpoint LOCF; for mean change (SD) from Baseline to Endpoint in BPRS total score: ITT
# Method: Rating scale assessments were performed weekly, except for week 5, to measure the change from baseline to endpoint of the PANSS total score. Other assessments included: PANSS positive symptom subscale score, PANSS negative symptom subscale score, PANSS general pschopathology subscale score, BPRS total score, BPRS psychosis score, the CGI-S score, the CGI-I score, responder rates based on the PANSS total score, and the Calgary Depression Scale for Schizophrenia (CDSS). […]
# Subjects who completed this study had the option to continue in the long-term. […] Blood samples were also obtained at Screening/Baseline, Week 3, and Week 6 for clinical laboratory assessments.
# [3] = system: adult subjects with schizophrenia; assay: PANSS responder rates, Clinical Study Three; conditions: for PANSS 20% definition response rate No, % / PANSS 20% definition response rate Yes, %: Week 6/Endpoint, LOCF; for 20% PANSS responder rate: Endpoint LOCF
# Method: There were four treatment arms in this study, approximately 144 subjects per arm. […] After completing the Single-Blind Placebo Lead-in Period of at least three days, bifeprunox-treated subjects were titrated from 0.25 mg up to 20 mg/day or 30 mg/day according to a standardized titration scheme over a seven- or eight-day period, respectively. When the assigned dose was reached, subjects were maintained at that dose for the remainder of the six week treatment period. […] Subjects were hospitalized (if not already inpatients) after eligibility for study entry was verified, starting from the Screening Visit until at least 10 days after Baseline. Subjects could be hospitalized longer than 10 days if considered medically necessary by the Investigator. Rating scale assessments for efficacy and abnormal movement disorders were done weekly except for Week 5. Safety assessments were performed at Screening, during treatment and at the end of the study. Subject satisfaction with study medication was assessed at Week 6. Samples of whole blood were obtained at Weeks 2, 4, and 6 for determination of bifeprunox in plasma.
# CLINICAL STUDY THREE. A PANSS responder was defined as a subject whose PANSS total score decreased by 20% or more from Baseline to Endpoint. As exploratory analyses, responder rates were also analyzed using a 30%, 35%, 40%, and 50% definition of responder.
# [4] = Bifeprunox 20 mg, Endpoint LOCF
# [5] = Bifeprunox 30 mg, Week 6/Endpoint
# [6] = Bifeprunox 40 mg, Week 6/Endpoint
smiles,measurement,setting,value
"O=c1[nH]c2cccc(N3CCN(Cc4cccc(-c5ccccc5)c4)CC3)c2o1 [Bifeprunox, 7-[4-([1,1′-biphenyl]-3-ylmethyl)-1-piperazinyl]-2(3H)-benzoxazolone]","Change from Baseline in BPRS Total Score, Median","[1]; Bifeprunox 10 mg, Week 1, LOCF",−1
same,"Change from Baseline in BPRS Total Score, Mean (S.D.)","[1]; Bifeprunox 10 mg, Week 2, LOCF",−3.1 (9.3)
same,"Change from Baseline in BPRS Total Score, Median","[1]; Bifeprunox 10 mg, Week 2, LOCF",−3
same,"Change from Baseline in BPRS Total Score, Mean (S.D.)","[1]; Bifeprunox 10 mg, Week 3, LOCF",−3.3 (10.9)
same,"Change from Baseline in BPRS Total Score, Median","[1]; Bifeprunox 10 mg, Week 3, LOCF",−2
same,"Change from Baseline in BPRS Total Score, Mean (S.D.)","[1]; Bifeprunox 10 mg, Week 4, LOCF",−3.1 (10.7)
same,"Change from Baseline in BPRS Total Score, Median","[1]; Bifeprunox 10 mg, Week 4, LOCF",−3
same,"Change from Baseline in BPRS Total Score, Mean (S.D.)",[1]; [4],−7.6 (10.1)
same,"Change from Baseline in BPRS Total Score, Median",[1]; [4],−8
same,"Change from Baseline in BPRS Total Score, Trt Effect (bifeprunox—placebo)",[1]; [4],−3.5
same,"Change from Baseline in BPRS Total Score, Mean (S.D.)","[1]; Bifeprunox 20 mg, Week 1, LOCF",−4.3 (7.3)
same,"Change from Baseline in BPRS Total Score, Median","[1]; Bifeprunox 20 mg, Week 1, LOCF",−3
same,"Change from Baseline in BPRS Total Score, Mean (S.D.)","[1]; Bifeprunox 20 mg, Week 2, LOCF",−6.1 (8.8)
same,"Change from Baseline in BPRS Total Score, Median","[1]; Bifeprunox 20 mg, Week 2, LOCF",−7
same,"Change from Baseline in BPRS Total Score, Mean (S.D.)","[1]; Bifeprunox 20 mg, Week 3, LOCF",−7.5 (9.1)
same,"Change from Baseline in BPRS Total Score, Median","[1]; Bifeprunox 20 mg, Week 3, LOCF",−8
same,"Change from Baseline in BPRS Total Score, Mean (S.D.)","[1]; Bifeprunox 20 mg, Week 4, LOCF",−7.7 (9.7)
same,"Change from Baseline in BPRS Total Score, Median","[1]; Bifeprunox 20 mg, Week 4, LOCF",−8
same,"Change from Baseline in BPRS Total Score, Mean (SD)","[2]; Bifeprunox 30 mg, Week 1",−3.8 (7.0)
same,"Change from Baseline in BPRS Total Score, Median","[2]; Bifeprunox 30 mg, Week 1",−3
same,"Change from Baseline in BPRS Total Score, Mean (SD)","[2]; Bifeprunox 30 mg, Week 2",−7.0 (9.5)
same,"Change from Baseline in BPRS Total Score, Median","[2]; Bifeprunox 30 mg, Week 2",−6
same,"Change from Baseline in BPRS Total Score, Mean (SD)","[2]; Bifeprunox 30 mg, Week 3",−7.93 (10.7)
same,"Change from Baseline in BPRS Total Score, Median","[2]; Bifeprunox 30 mg, Week 3",−6
same,"Change from Baseline in BPRS Total Score, Mean (SD)","[2]; Bifeprunox 30 mg, Week 4",−8.2 (11.5)
same,"Change from Baseline in BPRS Total Score, Median","[2]; Bifeprunox 30 mg, Week 4",−7
same,"Change from Baseline in BPRS Total Score, Mean (SD)",[2]; [5],−8.1 (12.3)
same,"Change from Baseline in BPRS Total Score, Median",[2]; [5],−7
same,"Change from Baseline in BPRS Total Score, Trt Effect (bifeprunox—placebo)",[2]; [5],−3.2
same,"Change from Baseline in BPRS Total Score, Mean (SD)","[2]; Bifeprunox 40 mg, Week 1",−4.3 (7.1)
same,"Change from Baseline in BPRS Total Score, Median","[2]; Bifeprunox 40 mg, Week 1",−4
same,"Change from Baseline in BPRS Total Score, Mean (SD)","[2]; Bifeprunox 40 mg, Week 2",−5.5 (9.3)
same,"Change from Baseline in BPRS Total Score, Median","[2]; Bifeprunox 40 mg, Week 2",−6
same,"Change from Baseline in BPRS Total Score, Mean (SD)","[2]; Bifeprunox 40 mg, Week 3",−6.3 (10.3)
same,"Change from Baseline in BPRS Total Score, Median","[2]; Bifeprunox 40 mg, Week 3",−6
same,"Change from Baseline in BPRS Total Score, Mean (SD)","[2]; Bifeprunox 40 mg, Week 4",−5.7 (10.9)
same,"Change from Baseline in BPRS Total Score, Median","[2]; Bifeprunox 40 mg, Week 4",−4
same,"Change from Baseline in BPRS Total Score, Mean (SD)",[2]; [6],−6.5 (11.7)
same,"Change from Baseline in BPRS Total Score, Median",[2]; [6],−5
same,"Change from Baseline in BPRS Total Score, Trt Effect (bifeprunox—placebo)",[2]; [6],−1.9
same,"BPRS total score, treatment effect (bifeprunox—placebo)",[2]; bifeprunox 30 mg,−3.2
same,mean change (SD) from Baseline to Endpoint in BPRS total score,[2]; bifeprunox 30 mg,−8.1 (12.3)
same,"BPRS total score, treatment effect (bifeprunox—placebo)",[2]; bifeprunox 40 mg,−1.9
same,mean change (SD) from Baseline to Endpoint in BPRS total score,[2]; bifeprunox 40 mg,−6.5 (11.7)
same,"PANSS 20% definition response rate No, %",[3]; 20 mg,58%
same,"PANSS 20% definition response rate Yes, %",[3]; 20 mg,42%
same,"PANSS 20% definition response rate No, %",[3]; 30 mg,61%
same,"PANSS 20% definition response rate Yes, %",[3]; 30 mg,39%
same,20% PANSS responder rate,[3]; bifeprunox 20 mg,42%
same,20% PANSS responder rate,[3]; bifeprunox 30 mg,39%
